Test results reported in ChEMBL document CHEMBL1201862, “PubChem BioAssay data set” (2004).
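Five compound concentrations were applied to cells in 96-well plates for 48 hours; endpoints were derived by simple linear interpolation of the resulting dose-response curve. Abbreviation: GI50, concentration required for 50% inhibition of growth.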 The source made the active and inactive calls. Rule as the data show it: active = GI50 up to about 1.1 µM and inactive = higher.

Assays:
Experiment in all cases: NCI-60 cell line screen, 48 h
[1] = tested on: SW-620
[2] = tested on: HL-60
[3] = tested on: SF-268
[4] = tested on: HOP-62
[5] = tested on: NCI-H522
[6] = tested on: DMS-273
[7] = tested on: SK-MEL-2
[8] = tested on: HOP-18
[9] = tested on: U-251
[10] = tested on: LXFL 529
[11] = tested on: ACHN
[12] = tested on: SNB-19
[13] = tested on: HOP-92
[14] = tested on: SNB-78
[15] = tested on: SK-MEL-28
[16] = tested on: KM12
[17] = tested on: Malme-3M
[18] = tested on: TK-10
[19] = tested on: HCT-116
[20] = tested on: DMS-114
[21] = tested on: NCI-H460
[22] = tested on: RXF 631
[23] = tested on: 786-0
[24] = tested on: OVCAR-5
[25] = tested on: UO-31
[26] = tested on: CAKI-1
[27] = tested on: HT-29
[28] = tested on: UACC-62
[29] = tested on: EKVX
[30] = tested on: RPMI-8226
[31] = tested on: COLO 205
[32] = tested on: HCT-15
[33] = tested on: XF498
[34] = tested on: NCI-H226
[35] = tested on: OVCAR-8
[36] = tested on: SK-MEL-5
[37] = tested on: HCC 2998
[38] = tested on: NCI-H23
[39] = tested on: SR
[40] = tested on: CCRF-CEM
[41] = tested on: KM-20L2
[42] = tested on: K562
[43] = tested on: OVCAR-4
[44] = tested on: A498
[45] = tested on: SK-OV-3
[46] = tested on: OVCAR-3
[47] = tested on: DLD-1
[48] = tested on: M19-MEL
[49] = tested on: UACC-257
[50] = tested on: A549
[51] = tested on: MOLT-4
[52] = tested on: SN12C
[53] = tested on: SF-539
[54] = tested on: SNB-75
[55] = tested on: RXF 393
[56] = tested on: SF-295
[57] = tested on: M14
[58] = tested on: IGROV-1
[59] = tested on: LOX IMVI

With `N#CC(C(=O)CCCC(=O)Nc1ccccc1[N+](=O)[O-])c1c(Cl)cccc1Cl` (stereo not drawn) the GI50 [1] was > 100 µM (inactive), the GI50 [2] was 99.1 µM (inactive) and the GI50 [3] was > 100 µM (inactive). The GI50 [4] was > 100 µM (inactive), the GI50 [5] was > 100 µM (inactive) and the GI50 [6] was > 100 µM (inactive). The GI50 [7] was > 100 µM (inactive), the GI50 [8] was 31 µM (inactive) and the GI50 [9] was > 100 µM (inactive). The GI50 [10] was > 100 µM (inactive), the GI50 [11] was > 100 µM (inactive) and the GI50 [12] was > 100 µM (inactive). The GI50 [13] was 61.9 µM (inactive), the GI50 [14] was > 100 µM (inactive) and the GI50 [15] was > 100 µM (inactive). The GI50 [16] was > 100 µM (inactive), the GI50 [17] was > 100 µM (inactive) and the GI50 [18] was > 100 µM (inactive). For the same compound, the GI50 [19] was > 100 µM (inactive), the GI50 [20] was > 100 µM (inactive) and the GI50 [21] was > 100 µM (inactive). The GI50 [22] was > 100 µM (inactive), the GI50 [23] was > 100 µM (inactive) and the GI50 [24] was > 100 µM (inactive). The GI50 [25] was > 100 µM (inactive), the GI50 [26] was > 100 µM (inactive) and the GI50 [27] was > 100 µM (inactive). The GI50 [28] was > 100 µM (inactive), the GI50 [29] was > 100 µM (inactive) and the GI50 [30] was > 100 µM (inactive). For the same compound, the GI50 [31] was > 100 µM (inactive), the GI50 [32] was > 100 µM and the GI50 [33] was > 100 µM (inactive). For the same compound, the GI50 [34] was > 100 µM (inactive), the GI50 [35] was > 100 µM (inactive) and the GI50 [36] was > 100 µM (inactive). The GI50 [37] was > 100 µM (inactive), the GI50 [38] was > 100 µM (inactive) and the GI50 [39] was > 100 µM (inactive). The GI50 [40] was > 100 µM (inactive), the GI50 [41] was > 100 µM (inactive) and the GI50 [42] was > 100 µM (inactive). The GI50 [43] was > 100 µM (inactive), the GI50 [44] was > 100 µM (inactive) and the GI50 [45] was > 100 µM (inactive). The GI50 [46] was > 100 µM (inactive), the GI50 [47] was > 100 µM (inactive) and the GI50 [48] was > 100 µM (inactive). The GI50 [49] was > 100 µM (inactive), the GI50 [50] was > 100 µM (inactive) and the GI50 [51] was > 100 µM (inactive). For the same compound, the GI50 [52] was > 100 µM (inactive), the GI50 [53] was > 100 µM (inactive) and the GI50 [54] was > 100 µM (inactive). The GI50 [55] was > 100 µM (inactive), the GI50 [56] was > 100 µM (inactive) and the GI50 [57] was > 100 µM (inactive). For the same compound, the GI50 [58] was > 100 µM (inactive).
With `CC(CC(=O)Nc1ccc(NC(=O)CC(C)/N=N\C(N)=S)cc1)/N=N\C(N)=S` (stereo not drawn) the GI50 [2] was > 100 µM (inactive), the GI50 [3] was > 100 µM (inactive) and the GI50 [4] was > 100 µM (inactive). The GI50 [6] was 36.9 µM (inactive), the GI50 [7] was > 100 µM (inactive) and the GI50 [8] was > 100 µM (inactive). For the same compound, the GI50 [10] was > 100 µM (inactive), the GI50 [11] was > 100 µM (inactive) and the GI50 [12] was > 100 µM (inactive). For the same compound, the GI50 [13] was > 100 µM (inactive), the GI50 [14] was > 100 µM (inactive) and the GI50 [15] was > 100 µM (inactive). The GI50 [16] was > 100 µM (inactive), the GI50 [17] was > 100 µM (inactive) and the GI50 [18] was > 100 µM (inactive). For the same compound, the GI50 [19] was > 100 µM (inactive), the GI50 [20] was 53.7 µM (inactive) and the GI50 [59] was 57.5 µM (inactive). The GI50 [21] was > 100 µM (inactive), the GI50 [22] was > 100 µM (inactive) and the GI50 [23] was > 100 µM (inactive). For the same compound, the GI50 [24] was > 100 µM (inactive), the GI50 [25] was > 100 µM (inactive) and the GI50 [26] was > 100 µM (inactive). For the same compound, the GI50 [27] was > 100 µM (inactive), the GI50 [28] was > 100 µM (inactive) and the GI50 [29] was > 100 µM (inactive). For the same compound, the GI50 [30] was > 100 µM (inactive), the GI50 [31] was > 100 µM (inactive) and the GI50 [32] was 85.9 µM. The GI50 [33] was > 100 µM (inactive), the GI50 [34] was > 100 µM (inactive) and the GI50 [35] was > 100 µM (inactive). The GI50 [36] was > 100 µM (inactive), the GI50 [37] was > 100 µM (inactive) and the GI50 [38] was > 100 µM (inactive). For the same compound, the GI50 [39] was 48.9 µM (inactive), the GI50 [40] was > 100 µM (inactive) and the GI50 [41] was > 100 µM (inactive). The GI50 [42] was > 100 µM (inactive), the GI50 [43] was > 100 µM (inactive) and the GI50 [44] was > 100 µM (inactive). For the same compound, the GI50 [46] was > 100 µM (inactive), the GI50 [47] was > 100 µM (inactive) and the GI50 [48] was > 100 µM (inactive). For the same compound, the GI50 [49] was > 100 µM (inactive), the GI50 [50] was > 100 µM (inactive) and the GI50 [51] was > 100 µM (inactive). For the same compound, the GI50 [52] was > 100 µM (inactive), the GI50 [53] was > 100 µM (inactive) and the GI50 [54] was > 100 µM (inactive). For the same compound, the GI50 [55] was > 100 µM (inactive), the GI50 [56] was > 100 µM (inactive) and the GI50 [57] was > 100 µM (inactive). The GI50 [58] was > 100 µM (inactive).
